From patent US9273075B2, “Prodrugs of 1,4-benzodiazepinone compounds” (BRISTOL-MYERS SQUIBB COMPANY, priority 2012, dated 2016) come the findings set out here.

Data set [1] in a line: High Throughput Metabolic Stability Panel, mouse liver microsomes. Background: Liver microsomes are vesicles of endoplasmic reticulum, rich in cytochrome P450 enzymes.
Data set [2] is described as follows: High Throughput Metabolic Stability Panel, dog microsomes. The conditions noted are these: control compound values (expected ranges), 10 minutes.
Data set [3] is described as follows: High Throughput Metabolic Stability Panel, rat microsomes. The conditions noted are these: control compound values (expected ranges), 10 minutes.
The nature of data set [4]: High Throughput Metabolic Stability Panel, monkey microsomes. The settings on record: control compound values (expected ranges), 10 minutes.
In another data set the test system is Pat-26 pancreatic cancer. Put plainly: Human tumor xenograft in mice: Pat-26. It is filed as in vivo. The settings on record: Pat-26 xenograft; PO, QDx15, 10 day-on-2 day-off, 5-10 mg/kg/adm. On the technique in general: Xenograft models place foreign cells or tissue in a host animal.
Data set [5] deals with MDA-MB157 TN breast cancer. Put plainly: Human tumor xenograft in mice: MDA-MB157. It is filed as in vivo. The conditions noted are these: PO, QDx15, 10 day-on-2 day-off, 5-10 mg/kg/adm.
Data set [6] concerns U-87 glioblastoma multiforme (GBM). Put plainly: Human tumor xenograft in mice: U-87. It is filed as in vivo. The conditions noted are these: U-87 xenograft; PO, QDx15, 10 day-on-2 day-off, 5-10 mg/kg/adm.
The test system of data set [7] is Pat-21/Abx R TN breast cancer (abx R). Briefly: Human tumor xenograft in mice: Pat-21/Abx R. The conditions noted are these: Pat-21/Abx R xenograft; PO, QDx15, 10 day-on-2 day-off, 5-10 mg/kg/adm. It is filed as in vivo.
The next data set deals with TALL-1 leukemia. Briefly: Cell proliferation, TALL-1 leukemia. It is filed as cell-based. The conditions noted are these: Homo sapiens; TALL-1 leukemia cells. As for the experimental part:
(§1) In in vitro studies, all agents were dissolved in 100% DMSO and serially diluted in media/10% fetal bovine serum. For administration of Notch inhibitors to rodents, two different excipients were used: [1] 94% Labrafil/5% ETOH/1% TW80 or [2] ETOH/TPGS/PEG300 (10:10:80). Notch inhibitors were typically administered orally on a schedule of QD×15, 10 day-on-2 day-off, although other schedules had also been evaluated and shown to be efficacious.

The test system of a further data set is Pat-34 ovarian cancer. Put plainly: Human tumor xenograft in mice: Pat-34. The settings on record: Pat-34 xenograft; PO, QDx15, 10 day-on-2 day-off, 5-10 mg/kg/adm. It is filed as in vivo.
The subject of another data set is SK-N-AS neuroblastoma. Briefly: Human tumor xenograft in mice: SK-N-AS. It is filed as in vivo. The settings on record: PO, QDx15, 10 day-on-2 day-off, 5-10 mg/kg/adm.
The subject of a further data set is G292 osteogenic sarcoma. Put plainly: Human tumor xenograft in mice: G292. It is filed as in vivo. The conditions noted are these: PO, QDx15, 10 day-on-2 day-off, 5-10 mg/kg/adm.
In data set [8] the test system is Calu-6 Non small cell lung cancer. Put plainly: Human tumor xenograft in mice: Calu-6. The conditions noted are these: Calu-6 xenograft; PO, QDx15, 10 day-on-2 day-off, 5-10 mg/kg/adm. It is filed as in vivo.
In another data set the test system is HCT116 colon cancer. Put plainly: Human tumor xenograft in mice: HCT116. It is filed as in vivo. The conditions noted are these: PO, QDx15, 10 day-on-2 day-off, 5-10 mg/kg/adm.
In data set [9] the test system is TALL1 Human T-cell acute lymphoblastic leukemia. Put plainly: Human tumor xenograft in mice: TALL1. It is filed as in vivo.
The subject of another data set is Pat-50 ovarian cancer. Briefly: Human tumor xenograft in mice: Pat-50. The settings on record: Pat-50 xenograft; PO, QDx15, 10 day-on-2 day-off, 5-10 mg/kg/adm. It is filed as in vivo.
Another data set concerns MDA-MB-468 breast cancer. Put plainly: Cell proliferation, MDA-MB-468 breast cancer. It is filed as cell-based. The settings on record: Homo sapiens; MDA-MB-468 breast cancer cells. The protocol:
as §1

Data set [10] has as its system MCF7 estrogen-dependent breast cancer. Put plainly: Human tumor xenograft in mice: MCF7. It is filed as in vivo. The conditions noted are these: PO, QDx15, 10 day-on-2 day-off, 5-10 mg/kg/adm.
In data set [11] the test system is BT-474 HER2+ breast cancer. Briefly: Human tumor xenograft in mice: BT-474. It is filed as in vivo. The conditions noted are these: BT-474 xenograft; PO, QDx15, 10 day-on-2 day-off, 5-10 mg/kg/adm.
Data set [12] deals with MCF7i estrogen-independent breast cancer. Put plainly: Human tumor xenograft in mice: MCF7i. It is filed as in vivo. The settings on record: PO, QDx15, 10 day-on-2 day-off, 5-10 mg/kg/adm.
The test system of a further data set is Pat-24 pancreatic cancer. Briefly: Human tumor xenograft in mice: Pat-24. The settings on record: Pat-24 xenograft; PO, QDx15, 10 day-on-2 day-off, 5-10 mg/kg/adm. It is filed as in vivo.
Data set [13] deals with MDA-MB468 TN breast cancer. Briefly: Human tumor xenograft in mice: MDA-MB468. It is filed as in vivo. The settings on record: PO, QDx15, 10 day-on-2 day-off, 5-10 mg/kg/adm.

Take `CCc1nn(CCCN2CCN(c3cccc(Cl)c3)CC2)c(=O)n1CCOc1ccccc1` [Nefazodone]: for the setting “control compound values (expected ranges), human microsomes, 10 minutes”, the “Average Percent Remaining ± SD, Human” value is listed as 0.4 ± 0.4%. The “Average Percent Remaining ± SD, Mouse” value in data set [1] (control compound values (expected ranges), mouse microsomes, 10 minutes) was 0.4 ± 0.3%. Further, in data set [2], the “Average Percent Remaining ± SD, Dog” value is 0.4 ± 0.4%. Besides, in [3], the “Average Percent Remaining ± SD, Rat” value stood at 0.7 ± 0.6%. For the same compound, in [4], the “Average Percent Remaining ± SD, Monkey” value came to 0.6 ± 0.5%.
The IC50 is the midpoint of a concentration-inhibition curve. In the case of `CN1C(=O)[C@@H](NC(=O)[C@H](CCC(F)(F)F)[C@H](CCC(F)(F)F)C(N)=O)N=C(c2ccccc2)c2ccccc21` [Compound A, (2R,3S)—N-((3S)-1-Methyl-2-oxo-5-phenyl-2,3-dihydro-1H-1,4-benzodiazepin-3-yl)-2,3-bis(3,3,3-trifluoropropyl)succinamide], the “Antitumor Activity (% TGI)” value with Pat-26 pancreatic cancer is given as 93 % TGI; in [5], 81 % TGI; in data set [6] it was 82 % TGI; in data set [7], 73 % TGI; in the data set with Pat-34 ovarian cancer, 89 % TGI; in the data set with SK-N-AS neuroblastoma, 67 % TGI. The “Antitumor Activity (% TGI)” value turned out to be 75 % TGI in the data set on G292 osteogenic sarcoma; 81 % TGI in data set [8]; 75 % TGI in the data set on HCT116 colon cancer; 112 % TGI in data set [9] (TALL1 xenograft, PO, QDx15, 10 day-on-2 day-off, 5-10 mg/kg/adm); 91 % TGI in the data set with Pat-50 ovarian cancer; 73 % TGI in data set [10]. Moreover, the “Antitumor Activity (% TGI)” value turned out to be 96 % TGI in data set [11], 63 % TGI in [12], 111 % TGI in the data set with Pat-24 pancreatic cancer and 91 % TGI in [13]. For the same compound, the “0.5 μM HLM (% Remaining)” value (0.5 μM compound, human liver microsomes, ten-minute incubation, NADPH) is on record as 97%. For the same compound, the “0.5 μM MsLM (% Remaining)” value in [1] (0.5 μM compound, mouse liver microsomes, ten-minute incubation, NADPH) is recorded as 91%. The figures for the half-maximal inhibitory concentration (IC50) with TALL-1 leukemia and with MDA-MB-468 breast cancer were 3.9 nM and 3.8 nM, respectively. Also, the “in vivo efficacy against TALL1, activity as defined by the tumor growth inhibition (TGI)” value in data set [9] (FIG. 1, dosed intravenously QD×3, weekly×3, Compound A 3 mg/kg, Example 12 1.5, 3, 6 mg/kg, active = TGI≧50%) is reported as “active”.
